Experiment [1] relates to Bacillus subtilis KB-143(IFO 3001). Briefly: Minimum inhibitory concentration, nutrient agar dilution. In kind it is cell-based. Here is the method:
(§1) Experiment 1: Minimum Inhibitory Concentration (µg/ml)
(§2) The tylosin derivatives obtained in Examples 1 through 9 were tested for their minimum inhibitory concentrations against gram-positive and gram-negative bacteria. The tests were conducted in conventional manner by inoculating varying concentrations of the test sample on a nutrient agar test medium and incubating at 37°C for 18-20 hours. The concentrations of the test samples inhibiting the bacteria growth were measured in µg per ml as a minimum inhibitory concentration.
On the technique in general: In agar dilution, organisms are placed on agar that contains the substance at set levels.

Experiment [2] concerns Staphylococcus aureus KB-210 (ATC 65380). Described as above. In kind it is cell-based. The conditions noted are these: for MIC: read-out: Minimum Inhibitory Concentrations. Here is the method:
as §1, §2

Experiment [3] has as its system Klebsiella pneumoniae KB13(PCI 602). Described as above. The conditions noted are these: for MIC: read-out: Minimum Inhibitory Concentrations. It counts as cell-based. Here is the method:
as §1, §2

The subject of experiment [4] is Micrococcus luteus KB212 (ATCC 9341). Described as above. In kind it is cell-based. The procedure: as §1, §2
Experiment [5] deals with Escherichia coli KB213 (NIHJ). The experiment is described as above. In kind it is cell-based. Particulars: 37°C, 18-20 hours; for MIC: read-out: Minimum Inhibitory Concentrations. The procedure: as §1, §2
The test system of the next experiment is S. pyrogenes C203. The experiment is described as follows: In vivo activity in infected mice. Here is the method:
Experiment 2: In vivo Activity
The compounds obtained in Examples 2 and 4 were separately administered subcutaneously or orally to mice infected with S. pyrogenes C203. The in vivo activity was measured as ED50 (mg/kg x 2).

The mark [6] stands for this setting: Bacillus subtilis KB-143(IFO 3001), nutrient agar, 37°C, 18-20 hours.
Setting [7] is: Staphylococcus aureus KB-210 (ATC 65380), nutrient agar, 37°C, 18-20 hours.
Setting [8] is: Klebsiella pneumoniae KB13(PCI 602), nutrient agar, 37°C, 18-20 hours.
Where [9] appears, read: Micrococcus luteus KB212 (ATCC 9341), nutrient agar, 37°C, 18-20 hours.

Converted amounts (≈) assume the structure as drawn. Read-outs that look alike come from different tables or passages of the source.

As for “9-0-Acetyl-9-dihydrodemycarosyltylosin [Example 5]”, the “Minimum Inhibitory Concentrations” value in experiment [1] (setting [6]) is 1.56 µg/mL; in experiment [2] (setting [7]), 1.56 µg/mL; in experiment [3] (setting [8]), greater than 50 µg/mL; in experiment [4] (setting [9]), 0.2 µg/mL; in experiment [5], greater than 50 µg/mL.
On to 9-0-Acetyl-9-dihydrotylosin [Example 1], for which the “Minimum Inhibitory Concentrations” value was 0.2 µg/mL in experiment [1] (setting [6]); 1.56 µg/mL in experiment [2] (setting [7]); 100 µg/mL in experiment [3] (setting [8]); less than 0.1 µg/mL in experiment [4] (setting [9]); greater than 100 µg/mL in experiment [5].
On the same counts, the results for “9-0-Benzoyl-9-dihydrodemycarosyltylosin [Example 8]” are 1.56 µg/mL, 1.56 µg/mL, greater than 100 µg/mL, 0.2 µg/mL and greater than 100 µg/mL.
The matching figures for “9-0-Benzoyl-9-dihydrotylosin [Example 4]”: 0.2 µg/mL, 0.78 µg/mL, greater than 100 µg/mL, less than 0.1 µg/mL and greater than 100 µg/mL.
Regarding “9-0-Butyryl-9-dihydrodemycarosyltylosin [Example 7]”, the “Minimum Inhibitory Concentrations” value was 1.56 µg/mL in experiment [1] (setting [6]); 1.56 µg/mL in experiment [2] (setting [7]); greater than 50 µg/mL in experiment [3] (setting [8]); 0.2 µg/mL in experiment [4] (setting [9]); greater than 50 µg/mL in experiment [5].
With “9-0-Butyryl-9-dihydrotylosin [Example 3]”, the “Minimum Inhibitory Concentrations” value in experiment [1] (setting [6]) is 0.4 µg/mL; in experiment [2] (setting [7]) it was 1.56 µg/mL; in experiment [3] (setting [8]), 100 µg/mL; in experiment [4] (setting [9]), less than 0.1 µg/mL; in experiment [5] it was 100 µg/mL.
As for “9-0-Propionyl-9-dihydrodemycarosyltylosin [Example 6]”, the “Minimum Inhibitory Concentrations” value was 1.56 µg/mL in experiment [1] (setting [6]); 1.56 µg/mL in experiment [2] (setting [7]); greater than 100 µg/mL in experiment [3] (setting [8]); 0.2 µg/mL in experiment [4] (setting [9]); greater than 100 µg/mL in experiment [5].
Consider “9-0-Propionyl-9-dihydrotylosin [Example 2]”, for which the ED50 with S. pyrogenes C203 (Oral, mice infected with S. pyrogenes C203) worked out at 12.5 mg/kg x 2; with S. pyrogenes C203 (Subcutaneous, mice infected with S. pyrogenes C203), 2.5 mg/kg x 2. The “Minimum Inhibitory Concentrations” value in experiment [1] (setting [6]) is 0.2 µg/mL; in experiment [2] (setting [7]), 0.78 µg/mL; in experiment [3] (setting [8]), greater than 100 µg/mL; in experiment [4] (setting [9]), less than 0.1 µg/mL; in experiment [5], greater than 100 µg/mL.
For the compound `CCC1OC(=O)CC(O)C(C)C(OC2OC(C)C(O)C(N(C)C)C2O)C(CC=O)CC(C)C(=O)C=CC(C)=CC1COC1OC(C)C(O)C(OC)C1OC` (stereo not drawn) [Detyl, Demycarosyltylosin, reference compound], the MIC in experiment [1] (IFO3001, Bacillus subtilis KB-143(IFO 3001), nutrient agar, 37°C, 18-20 hours, read-out: Minimum Inhibitory Concentrations) was 3.12 mg/L (≈ 4.04 µM); in experiment [2] (setting [7]), 3.12 mg/L (≈ 4.04 µM); in experiment [3] (setting [8]) it was 100 mg/L (≈ 130 µM); in experiment [4] (ATCC9341, Micrococcus luteus KB212 (ATCC 9341), nutrient agar, 37°C, 18-20 hours, read-out: Minimum Inhibitory Concentrations), 0.2 mg/L (≈ 0.259 µM); in experiment [5], greater than 100 mg/L.
For the compound `CC[C@H]1OC(=O)C[C@@H](O)[C@H](C)[C@@H](O[C@@H]2O[C@H](C)[C@@H](O[C@H]3C[C@@](C)(O)[C@@H](O)[C@H](C)O3)[C@H](N(C)C)[C@H]2O)[C@@H](CC=O)C[C@@H](C)C(=O)/C=C/C(C)=C/[C@@H]1CO[C@@H]1O[C@H](C)[C@@H](O)[C@@H](OC)[C@H]1OC` [Tyl, Tylosin], the ED50 in the experiment with S. pyrogenes C203 (Mus musculus, po) amounted to 50 mg/kg; in the experiment on S. pyrogenes C203 (Mus musculus, sc) it was 1 mg/kg. Also, the MIC is 0.78 mg/L (≈ 0.851 µM) in experiment [1] (Bacillus subtilis, IFO3001, read-out: Minimum Inhibitory Concentrations); 1.56 mg/L (≈ 1.7 µM) in experiment [2] (Staphylococcus aureus); greater than 100 mg/L in experiment [3] (Klebsiella pneumoniae); 0.2 mg/L (≈ 0.218 µM) in experiment [4] (Micrococcus luteus, ATCC9341, read-out: Minimum Inhibitory Concentrations); greater than 100 mg/L in experiment [5].
